Where a name gives a salt, the structure may show the parent alone. Read-outs that look alike come from different tables or passages of the source.
Columns and labels:
[1] = molecular target: T1, Full-length (FL)-PRMT5-MEP50 enzyme complex (Homo sapiens, UniProt O14744); experiment: PRMT5-MEP50 Enzyme Methylation Assay; format: biochemical; details: 1.0 nM PRMT5-MEP50, 75 nM biotinylated H4R3(Me1) peptide, 15 μM SAM, 60 min pre-incubation, 150 min at 37° C.
T1 construct: 1.25 nM of Full-length (FL)-PRMT5-MEP50 enzyme complex; made in house; host or cells: baculovirus-transfected Sf21 cells
Procedure: PRMT5/MEP50 biochemical assay is a direct measurement of the methylation activity of the enzyme complex on a short peptide substrate derived from the N-terminus of H4 histone. Methylation experiment is performed with recombinant protein. The assessment of inhibitory effect (IC50) of small molecules is measured by the effectiveness of the compounds to inhibit this reaction.
In this assay, the potency (IC50) of each compound was determined from a twenty-point (1:2 serial dilution; top compound concentration of 100000 nM) titration curve using the following outlined procedure. To each well of a white ProxiPlus 384 well-plate, 100 nL of compound (1% DMSO in final assay volume of 10 μL) was dispensed, followed by the addition of 8 μL of 1× assay buffer (50 mM Bicine pH 8.0, 1 mM DTT, 0.004% Tween20, 0.01% BSA) containing 1.25 nM of Full-length (FL)-PRMT5-MEP50 enzyme complex (recombinant proteins from baculovirus-transfected Sf21 cells: FL-PRMT5; MW=[…] and FL-MEP50; MW=38614) and 1 μL of 150 μM S-(5′-Adenosyl)-L-Methionine Chloride (SAM). Plates were sealed and placed in a 37° C. humidified chamber for a 60 min pre-incubation with compound. Subsequently, each reaction was initiated by the addition of 1 μL 1× assay buffer containing 750 nM biotinylated H4R3(Me1) peptide. The final reaction in each well of 10 μL consists of 1.0 nM PRMT5-MEP50, 75 nM biotinylated-peptide, and 15 μM SAM. Methylation reactions were allowed to proceed for 150 min in a sealed plate at 37° C. Reactions were immediately quenched by the addition of 1 μL of 5% formic acid. Plates were then frozen and shipped to SAMDI™ Tech Inc. to determine the percent conversion from H4R3(Me1) to H4R3(Me2). IC50 values were determined by a 7 parameter biphasic fit model plotting the percent Effect (based on product conversion) vs. (Log10) compound concentrations.

PRMT5 = molecular target: T2, PRMT5 (Homo sapiens, UniProt O14744); experiment: PRMT5 Cell Target Engagement (TE) Assay; format: cell-based; details: MCF-7 cells, treated for 3 days, symmetrically dimethylated (SDMA) nuclear proteins by high content imaging; top concentration 10000 nM
T2 construct: seeded with 4000 MCF-7 cells; endogenous in cells; host or cells: MCF-7 cells
Source text: The PRMT5 TE assay is a biomarker assay for identifying compounds that inhibit symmetric dimethylation of arginine (SDMA) of PRMT5 substrates. The following substrates have been reported for PRMT5: histone H2A and H4 R3, Histone H3 R2, Histone H3 R8, spliceosome Sm proteins, ribosomal protein RPS10, p53, FEN1, nucleoplasmin, nucleolin, EGFR and EBNA. The assay will focus on detecting symmetrically dimethylated nuclear proteins using high content imaging technology. Detection of the expression of symmetrically dimethylated nuclear proteins is through a mixture of primary rabbit monoclonal antibodies to SDMA (CST 13222), which in turn recognized by an Alexafluor 488 dye-conjugated anti-rabbit IgG secondary antibody. The IN Cell Analyzer 2200 or Opera-Phenix measures nuclear Alexafluor 488 fluorescent dye intensity that is directly related to the level of expression of symmetrically dimethylated nuclear proteins at the single cell level. Nuclear AF488 dye intensities are compared to the mean value for DMSO treated cells (MIN) to report percent of inhibition for each compound-treated well. In this assay, the cell potency (EC50) of each compound was determined from a ten point (1:3 serial dilution; top compound concentration of 10000 nM) titration curve using the following outlined procedure. Each well of a BD falcon collagen coated black/clear bottom 384-well plate was seeded with 4000 MCF-7 cells in 30 μl media and allowed to attach for 5 h. Media is ATCC-formulated Eagle's Minimum Essential Medium, Catalog No. 30-2003. To make the complete growth medium, add the following components to the base medium: 0.01 mg/ml human recombinant insulin; fetal bovine serum to a final concentration of 10%. Additional 30 μl of media containing 2× compounds were added to each well. Cells were treated for 3 days in 37° C. CO2 incubator. On day 3, cells were fixed with Cytofix, permeabilized with 0.4% Triton-X-100/Cytofix, and washed with D-PBS without Ca/Mg. Cells were blocked with Licor Odessey blocking reagent for 1 h at room temperature, followed by incubation with anti-SDMA (1:1000) antibody at 4° C. overnight. 1° antibody was removed, followed by three washings with DPBS without Ca/Mg and 0.05% Tween20. Hoechst (5 μg/ml), Cell Mask deep stain (1:2000) and Alexa488-conjugated goat anti-rabbit IgG (2 μg/mL) was added for 1 hour at room temperature. A final washing step (three washes) was performed before sealing plate for imaging on In Cell Analyzer 2200 or Opera-Phenix. Images from analyzer were uploaded to Columbus (at WP or BOS) for image analysis. IC50 values were determined by 4 parameters robust fit of percent fluorescence units vs. (Log10) compound concentrations.

[2] = first value of 7 parameter biphasic fit, read-out: Enzyme Methylation Assay EC50_1
[3] = second value of 7 parameter biphasic fit, read-out: Enzyme Methylation Assay EC50_2

T2 sequence (O14744 whole entry): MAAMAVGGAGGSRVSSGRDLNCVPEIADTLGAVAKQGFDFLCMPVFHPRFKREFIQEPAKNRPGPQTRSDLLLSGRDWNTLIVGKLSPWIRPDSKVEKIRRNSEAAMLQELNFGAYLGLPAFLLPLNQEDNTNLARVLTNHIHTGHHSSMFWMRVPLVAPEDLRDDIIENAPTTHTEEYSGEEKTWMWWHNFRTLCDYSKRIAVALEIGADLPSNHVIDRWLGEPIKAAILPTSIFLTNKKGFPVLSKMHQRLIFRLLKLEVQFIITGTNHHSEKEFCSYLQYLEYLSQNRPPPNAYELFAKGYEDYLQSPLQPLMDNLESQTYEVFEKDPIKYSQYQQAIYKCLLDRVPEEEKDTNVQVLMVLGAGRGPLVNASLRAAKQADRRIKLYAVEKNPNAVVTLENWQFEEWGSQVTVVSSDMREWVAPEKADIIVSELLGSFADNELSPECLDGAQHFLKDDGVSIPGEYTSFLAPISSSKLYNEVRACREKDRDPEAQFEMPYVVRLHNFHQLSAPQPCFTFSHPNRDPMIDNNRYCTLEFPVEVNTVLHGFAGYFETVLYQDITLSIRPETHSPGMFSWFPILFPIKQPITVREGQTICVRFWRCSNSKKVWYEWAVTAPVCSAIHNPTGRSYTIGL
T2 sequence (Q9BQA1 whole entry partner): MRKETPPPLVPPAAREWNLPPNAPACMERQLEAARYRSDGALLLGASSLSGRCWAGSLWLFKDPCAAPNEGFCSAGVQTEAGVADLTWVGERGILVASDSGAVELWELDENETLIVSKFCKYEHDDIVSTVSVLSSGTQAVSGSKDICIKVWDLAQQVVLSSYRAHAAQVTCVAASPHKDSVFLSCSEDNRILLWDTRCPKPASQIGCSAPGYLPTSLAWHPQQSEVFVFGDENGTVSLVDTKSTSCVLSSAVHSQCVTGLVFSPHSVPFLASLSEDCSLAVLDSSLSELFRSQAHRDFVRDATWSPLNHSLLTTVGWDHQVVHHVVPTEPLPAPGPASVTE
T1 sequence (O14744 whole entry): as the sequence (O14744 whole entry) above
T1 sequence (Q9BQA1 whole entry partner): as the sequence (Q9BQA1 whole entry partner) above

EC50 [1, 2] | EC50 [1, 3] | EC50 (PRMT5) | Structure (SMILES)
1.37 nM | 85.1 nM | 60.6 nM | Nc1nc2cc(OC[C@H]3O[C@@H](n4cnc(N)c5ncnc4-5)[C@H](O)[C@@H]3O)ccc2cc1Br [Example 1, 3-[5-O-(2-amino-3-bromo-7-quinolinyl)-b-D-ribofuranosyl]-3H-purin-6-amine]
0.662 nM | 18.3 nM | 19.2 nM | Nc1ccn([C@@H]2O[C@H](COc3ccc4cc(Br)c(N)nc4c3)[C@@H](O)[C@H]2O)c2ncnc1-2 [Example 2, 4-[5-O-(2-amino-3-bromo-7-quinolinyl)-b-D-ribofuranosyl]-4H-imidazo[4,5-b]pyridin-7-amine]
1620 nM | – | > 10000 nM | Nc1nc2cc(OC[C@H]3O[C@@H](n4nc5ncnc-5c(N)n4)[C@H](O)[C@@H]3O)ccc2cc1Br [Example 3, 2-[5-O-(2-amino-3-bromo-7-quinolinyl)-b-D-ribofuranosyl]-2H-imidazo[4,5-d][1,2,3]triazin-4-amine trifluoroacetate]
0.489 nM | – | 2.54 nM | Nc1ccn([C@@H]2C[C@H](CCc3ccc4cc(Br)c(N)nc4c3)[C@@H](O)[C@H]2O)c2ncnc1-2 [Example 4, (1S,2R,3S,5R)-3-[2-(2-amino-3-bromo-7-quinolinyl)ethyl]-5-(7-amino-4H-imidazo[4,5-b]pyridin-4-yl)-1,2-cyclopentanediol]
0.32 nM | – | 0.508 nM | Cc1ccn([C@@H]2C[C@H](CCc3ccc4cc(Br)c(N)nc4c3)[C@@H](O)[C@H]2O)c2ncnc1-2 [Example 5, (1S,2R,3S,5R)-3-[2-(2-amino-3-bromo-7-quinolinyl)ethyl]-5-(7-methyl-4H-imidazo[4,5-b]pyridin-4-yl)-1,2-cyclopentanediol]
0.264 nM | – | 1.69 nM | Nc1nc2cc(CC[C@H]3C[C@@H](n4cnc(N)c5ncnc4-5)[C@H](O)[C@@H]3O)ccc2cc1Br [Example 6, (1S,2R,3S,5R)-3-[2-(2-amino-3-bromo-7-quinolinyl)ethyl]-5-(6-amino-3H-purin-3-yl)-1,2-cyclopentanediol hydrochloride]
0.231 nM | – | 16.1 nM | Nc1ccn([C@@H]2C[C@H](CCc3ccc4ccc(NCC(F)F)nc4c3)[C@@H](O)[C@H]2O)c2ncnc1-2 [Example 7, (1R,2S,3R,5S)-3-(7-amino-4H-imidazo[4,5-b]pyridin-4-yl)-5-(2-{2-[(2,2-difluoroethyl)amino]-7-quinolinyl}ethyl)-1,2-cyclopentanediol]
0.253 nM | – | 1.94 nM | Cc1ccn([C@@H]2C[C@H](CCc3ccc4ccc(NCC(F)F)nc4c3)[C@@H](O)[C@H]2O)c2ncnc1-2 [Example 8, (1S,2R,3S,5R)-3-(2-{2-[(2,2-difluoroethyl)amino]-7-quinolinyl}ethyl)-5-(7-methyl-4H-imidazo[4,5-b]pyridin-4-yl)-1,2-cyclopentanediol]
0.282 nM | – | 1.05 nM | Cc1ncn([C@@H]2C[C@H](CCc3ccc4cc(Br)c(N)nc4c3)[C@@H](O)[C@H]2O)c2ncnc1-2 [Example 9, (1S,2R,3S,5R)-3-[2-(2-amino-3-bromo-7-quinolinyl)ethyl]-5-(6-methyl-3H-purin-3-yl)-1,2-cyclopentanediol]
1.62 nM | – | 116 nM | Cc1cc2ncnc-2n([C@@H]2C[C@H](CCc3ccc4cc(Br)c(N)nc4c3)[C@@H](O)[C@H]2O)c1 [Example 10, (1S,2R,3S,5R)-3-[2-(2-amino-3-bromo-7-quinolinyl)ethyl]-5-(6-methyl-4H-imidazo[4,5-b]pyridin-4-yl)-1,2-cyclopentanediol trifluoroacetate]
0.96 nM | – | 30.2 nM | CCc1cc2ncnc-2n([C@@H]2C[C@H](CCc3ccc4cc(Br)c(N)nc4c3)[C@@H](O)[C@H]2O)c1 [Example 11, (1S,2R,3S,5R)-3-[2-(2-amino-3-bromo-7-quinolinyl)ethyl]-5-(6-ethyl-4H-imidazo[4,5-b]pyridin-4-yl)-1,2-cyclopentanediol trifluoroacetate]
0.58 nM | – | 1.7 nM | Cc1ccn([C@@H]2O[C@H](CCc3ccc4cc(Br)c(N)nc4c3)[C@@H](O)[C@H]2O)c2ncnc1-2 [Example 12, (2R,3S,4R,5R)-2-(2-(2-amino-3-bromoquinolin-7-yl)ethyl)-5-(7-methyl-4H-imidazo [4,5-b]pyridin-4-yl)tetrahydrofuran-3,4-diol]
0.404 nM | – | 61.5 nM | Cc1ccn([C@@H]2C[C@H](COc3ccc4cc(Br)c(N)nc4c3)[C@@H](O)[C@H]2O)c2ncnc1-2 [Example 13, (1S,2R,3R,5R)-3-(((2-amino-3-bromoquinolin-7-yl)oxy)methyl)-5-(7-methyl-4H-imidazo[4,5-b]pyridin-4-yl)cyclopentane-1,2-diol]
